In PMC11003488 (Journal of Enzyme Inhibition and Medicinal Chemistry, 2023):

Legend:
OVCAR-3 = assay: NCI-60 SRB growth inhibition, one-dose and five-dose; assay type: cell-based; details: Homo sapiens
Renal cancer cell lines = assay: NCI-60 SRB growth inhibition, subpanel; assay type: cell-based, human; details: Homo sapiens, read-out: GI50 MG-MID
Melanoma cell lines = assay: NCI-60 SRB growth inhibition, subpanel; assay type: cell-based, human; details: Homo sapiens, read-out: GI50 MG-MID
[1] = test system: WI-38 normal human fibroblast cells; assay: Cytotoxicity towards normal fibroblasts, safety index; assay type: cell-based; details: WI-38 versus cancer cell lines
[2] = as above; assay type: cell-based, human; details: human, WI-38 normal fibroblast cells
UO-31 = assay: NCI-60 SRB growth inhibition, one-dose and five-dose; assay type: cell-based; details: Homo sapiens, UO-31
UACC-257 = assay: as above; assay type: cell-based; details: Homo sapiens
[3] = test system: Prostate cancer cell lines; assay: NCI-60 SRB growth inhibition, subpanel; assay type: cell-based, human; details: Homo sapiens, read-out: GI50 MG-MID
T-47D = assay: NCI-60 SRB growth inhibition, one-dose and five-dose; assay type: cell-based; details: Homo sapiens, T47D
HCT-116 = assay: as above; assay type: cell-based; details: Homo sapiens
Leukaemia cell lines = assay: NCI-60 SRB growth inhibition, subpanel; assay type: cell-based, human; details: Homo sapiens, read-out: GI50 MG-MID
Breast cancer cell lines = assay: NCI-60 SRB growth inhibition, subpanel; assay type: cell-based, human; details: Homo sapiens, read-out: GI50 MG-MID
SK-MEL-2 = assay: NCI-60 SRB growth inhibition, one-dose and five-dose; assay type: cell-based; details: Homo sapiens, SK-MEL-2, read-out: percent growth inhibition
CAKI-1 = assay: as above; assay type: cell-based; details: Homo sapiens
SN12C = assay: as above; assay type: cell-based; details: Homo sapiens
KM12 = assay: as above; assay type: cell-based; details: Homo sapiens
ACHN = assay: as above; assay type: cell-based; details: Homo sapiens
EKVX = assay: as above; assay type: cell-based; details: Homo sapiens
CNS cancer cell lines = assay: NCI-60 SRB growth inhibition, subpanel; assay type: cell-based, human; details: Homo sapiens, read-out: GI50 MG-MID
[4] = test system: NCI 60-cell line panel (full panel); assay: NCI-60 SRB growth inhibition, full panel mean / MG-MID; assay type: cell-based, human
NCI-H23 = assay: NCI-60 SRB growth inhibition, one-dose and five-dose; assay type: cell-based; details: Homo sapiens
HCC-2998 = assay: as above; assay type: cell-based; details: Homo sapiens
NSCLC cell lines = assay: NCI-60 SRB growth inhibition, subpanel; assay type: cell-based, human; details: Homo sapiens, read-out: GI50 MG-MID
HCT-15 = assay: NCI-60 SRB growth inhibition, one-dose and five-dose; assay type: cell-based; details: Homo sapiens
[5] = test system: Ovarian cancer cell lines; assay: NCI-60 SRB growth inhibition, subpanel; assay type: cell-based, human; details: Homo sapiens, read-out: GI50 MG-MID
Human VEGFR-2 = Human VEGFR-2 (Homo sapiens, UniProt P35968); assay: VEGFR-2 inhibition assay; assay type: biochemical
RPMI-8226 = assay: NCI-60 SRB growth inhibition, one-dose and five-dose; assay type: cell-based; details: Homo sapiens
MCF7 = assay: as above; assay type: cell-based; details: Homo sapiens
Colon cancer cell lines = assay: NCI-60 SRB growth inhibition, subpanel; assay type: cell-based, human; details: Homo sapiens, read-out: GI50 MG-MID
MDA-MB-231/ATCC = assay: NCI-60 SRB growth inhibition, one-dose and five-dose; assay type: cell-based; details: Homo sapiens, MDA-MB-231
OVCAR-8 = assay: as above; assay type: cell-based; details: Homo sapiens, OVCAR-8, read-out: percent growth inhibition
[6] = read-out: percent growth inhibition

Sequence of Human VEGFR-2 (P35968 20-1356): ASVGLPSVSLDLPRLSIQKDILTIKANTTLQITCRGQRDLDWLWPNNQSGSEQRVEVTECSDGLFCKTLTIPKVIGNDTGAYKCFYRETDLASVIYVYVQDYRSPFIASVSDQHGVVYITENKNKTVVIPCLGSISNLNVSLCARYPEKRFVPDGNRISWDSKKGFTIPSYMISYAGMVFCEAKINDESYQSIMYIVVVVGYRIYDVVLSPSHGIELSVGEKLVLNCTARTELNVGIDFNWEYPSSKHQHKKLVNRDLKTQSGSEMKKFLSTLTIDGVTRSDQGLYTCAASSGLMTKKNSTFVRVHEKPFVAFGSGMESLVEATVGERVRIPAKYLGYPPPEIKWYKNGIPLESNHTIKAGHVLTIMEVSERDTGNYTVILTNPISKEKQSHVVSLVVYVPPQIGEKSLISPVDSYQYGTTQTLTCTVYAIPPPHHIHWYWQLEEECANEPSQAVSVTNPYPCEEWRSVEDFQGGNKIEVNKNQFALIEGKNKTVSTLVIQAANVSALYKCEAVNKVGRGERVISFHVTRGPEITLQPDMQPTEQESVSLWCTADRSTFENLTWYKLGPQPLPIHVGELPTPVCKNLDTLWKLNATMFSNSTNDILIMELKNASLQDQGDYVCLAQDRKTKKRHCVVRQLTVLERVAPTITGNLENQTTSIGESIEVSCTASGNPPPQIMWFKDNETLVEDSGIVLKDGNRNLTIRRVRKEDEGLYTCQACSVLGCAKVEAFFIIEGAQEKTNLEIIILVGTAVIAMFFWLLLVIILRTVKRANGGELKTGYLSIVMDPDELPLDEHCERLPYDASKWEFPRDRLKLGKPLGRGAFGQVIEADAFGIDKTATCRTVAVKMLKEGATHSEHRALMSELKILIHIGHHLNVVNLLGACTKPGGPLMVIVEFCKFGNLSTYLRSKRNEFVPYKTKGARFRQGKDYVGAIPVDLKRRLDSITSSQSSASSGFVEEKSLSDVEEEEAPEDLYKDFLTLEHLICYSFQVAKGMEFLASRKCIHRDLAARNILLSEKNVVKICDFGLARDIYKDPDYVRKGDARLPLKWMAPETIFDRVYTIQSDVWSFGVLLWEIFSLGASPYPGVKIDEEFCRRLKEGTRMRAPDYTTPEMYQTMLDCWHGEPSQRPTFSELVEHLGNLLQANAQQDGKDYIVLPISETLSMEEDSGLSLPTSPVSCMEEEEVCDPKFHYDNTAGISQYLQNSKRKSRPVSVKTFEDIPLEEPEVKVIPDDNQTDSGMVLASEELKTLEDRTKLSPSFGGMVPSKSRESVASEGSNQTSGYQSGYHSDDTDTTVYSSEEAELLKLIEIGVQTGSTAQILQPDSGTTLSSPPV

In the case of `CC(=O)Nc1ccc(/C=C/C(=O)c2cccc(NCc3csc4ccccc34)c2)cc1` [Compound 5i, (E)-N-(4–(3-(3-((benzo[b]thiophen-3-ylmethyl)amino)phenyl)-3-oxoprop-1-en-1-yl)phenyl) acetamide], the GI50 (OVCAR-3; OVCAR-3) is reported as 3.47 µM, the inhibition at 10 µM (OVCAR-3; OVCAR-3, read-out: percent growth inhibition) is reported as 133% and the GI50 (Renal cancer cell lines) is reported as 11.3 µM. For the same molecule, the GI50 (Melanoma cell lines) was 8.14 µM, the Safety index [1] was >1 and the GI50 at 48 h [2] was > 100 µM. It also gave a GI50 (UO-31) of 5.16 µM, a GI50 (UACC-257; UACC-257) of 14.2 µM and an inhibition at 10 µM (UACC-257; UACC-257, read-out: percent growth inhibition) of 50.6%. For the same molecule, the GI50 [3] was 5.01 µM, the GI50 (T-47D) was 4.14 µM and the inhibition at 10 µM (T-47D; [6]) was 79.7%. It also gave a GI50 (HCT-116; HCT-116, HCT-116, five-dose screening) of 2.02 µM, an inhibition at 10 µM (HCT-116; HCT-116, read-out: percent growth inhibition) of 180% and a GI50 (Leukaemia cell lines) of 2.93 µM. The GI50 (Breast cancer cell lines) was 3.79 µM, the inhibition at 10 µM (SK-MEL-2) was 39.9% and the GI50 (CAKI-1; CAKI-1) was 18.4 µM. It also gave an inhibition at 10 µM (CAKI-1; CAKI-1, read-out: percent growth inhibition) of 57.7%, a GI50 (SN12C) of 3.29 µM and an inhibition at 10 µM (SN12C; [6]) of 93.3%. It also gave a GI50 (KM12; KM12) of 5.12 µM, an inhibition at 10 µM (KM12; KM12, read-out: percent growth inhibition) of 129% and a GI50 (ACHN) of 7.35 µM. The inhibition at 10 µM (ACHN; [6]) was 51.4%, the GI50 (EKVX) was 10.8 µM and the inhibition at 10 µM (EKVX; [6]) was 73%. For the same molecule, the GI50 (CNS cancer cell lines) was 6.12 µM, the GI50 ([4]; Homo sapiens, 60 cell, read-out: Full panel GI50 mean) was 7.06 µM and the “Full panel Mean GI %” value ([4]; mean over NCI-60 panel, single dose 10 µM) was 82.81%. It also gave a GI50 (NCI-H23; NCI-H23) of 9.1 µM, an inhibition at 10 µM (NCI-H23; NCI-H23, read-out: percent growth inhibition) of 57.5% and a GI50 (HCC-2998; HCC 2998) of 12.4 µM. It also gave an inhibition at 10 µM (HCC-2998; HCC 2998, read-out: percent growth inhibition) of 56%, a GI50 (NSCLC cell lines) of 11.2 µM and a GI50 (HCT-15; HCT-15) of 2.1 µM. It also gave an inhibition at 10 µM (HCT-15; HCT-15, read-out: percent growth inhibition) of 142%, a GI50 [5] of 8.28 µM and an IC50 (Human VEGFR-2) of 0.66 ± 0.018 µM. The GI50 (RPMI-8226; RPMI-8226) was 2.56 µM, the inhibition at 10 µM (RPMI-8226; RPMI-8226, read-out: percent growth inhibition) was 121% and the GI50 (MCF7; MCF7) was 2.4 µM. For the same molecule, the inhibition at 10 µM (MCF7; MCF7, read-out: percent growth inhibition) was 130%, the GI50 (Colon cancer cell lines) was 6.66 µM and the GI50 (MDA-MB-231/ATCC) was 3.42 µM. The inhibition at 10 µM (OVCAR-8) was 131%.
